Assay results published in article PMC6921082, “Molecular Characterization of a Novel Cold-Active Hormone-Sensitive Lipase (HaHSL) from Halocynthiibacter Arcticus” (Biomolecules, 2019).

Target: T1, HaHSL (Falsihalocynthiibacter arcticus, UniProt A0A126UZB4)
T1 construct: gene RC74_09005; full-length ORF (789 bp); mass peak 31,740; monomer; catalytic Ser138, Glu216, His244
Assay: p-nitrophenol release at […] nm, Lineweaver-Burk
Type: biochemical
Conditions: free enzyme; 20 mM Tris-HCl, 100 mM NaCl, pH 7.4 (spectroscopic analyses); standard assay pH 8.0, 25 °C

T1 sequence (A0A126UZB4 entry or part of it): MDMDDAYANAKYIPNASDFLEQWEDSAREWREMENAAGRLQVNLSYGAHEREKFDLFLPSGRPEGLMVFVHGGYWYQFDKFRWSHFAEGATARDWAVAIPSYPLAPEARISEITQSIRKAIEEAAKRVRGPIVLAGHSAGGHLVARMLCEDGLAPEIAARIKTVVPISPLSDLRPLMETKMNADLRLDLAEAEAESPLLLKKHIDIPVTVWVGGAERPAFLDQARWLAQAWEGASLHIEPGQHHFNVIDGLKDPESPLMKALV

Structure (SMILES)	Km [µM]
CC(=O)Oc1ccc([N+](=O)[O-])cc1 [p-nitrophenyl acetate]	210
CCCC(=O)Oc1ccc([N+](=O)[O-])cc1 [p-nitrophenyl butyrate]	1970 ± 530
CCCCCC(=O)Oc1ccc([N+](=O)[O-])cc1 [p-nitrophenyl hexanoate]	2320 ± 630
